Experimental data reported in ChEMBL document CHEMBL5291721, “A preclinical secondary pharmacology resource illuminates target-adverse drug reaction associations of marketed drugs” (Nat Commun, 2023).

Key:
Progesterone receptor = target: T1, Progesterone receptor (Homo sapiens, UniProt P06401); assay type: functional
T1 sequence (P06401 whole entry): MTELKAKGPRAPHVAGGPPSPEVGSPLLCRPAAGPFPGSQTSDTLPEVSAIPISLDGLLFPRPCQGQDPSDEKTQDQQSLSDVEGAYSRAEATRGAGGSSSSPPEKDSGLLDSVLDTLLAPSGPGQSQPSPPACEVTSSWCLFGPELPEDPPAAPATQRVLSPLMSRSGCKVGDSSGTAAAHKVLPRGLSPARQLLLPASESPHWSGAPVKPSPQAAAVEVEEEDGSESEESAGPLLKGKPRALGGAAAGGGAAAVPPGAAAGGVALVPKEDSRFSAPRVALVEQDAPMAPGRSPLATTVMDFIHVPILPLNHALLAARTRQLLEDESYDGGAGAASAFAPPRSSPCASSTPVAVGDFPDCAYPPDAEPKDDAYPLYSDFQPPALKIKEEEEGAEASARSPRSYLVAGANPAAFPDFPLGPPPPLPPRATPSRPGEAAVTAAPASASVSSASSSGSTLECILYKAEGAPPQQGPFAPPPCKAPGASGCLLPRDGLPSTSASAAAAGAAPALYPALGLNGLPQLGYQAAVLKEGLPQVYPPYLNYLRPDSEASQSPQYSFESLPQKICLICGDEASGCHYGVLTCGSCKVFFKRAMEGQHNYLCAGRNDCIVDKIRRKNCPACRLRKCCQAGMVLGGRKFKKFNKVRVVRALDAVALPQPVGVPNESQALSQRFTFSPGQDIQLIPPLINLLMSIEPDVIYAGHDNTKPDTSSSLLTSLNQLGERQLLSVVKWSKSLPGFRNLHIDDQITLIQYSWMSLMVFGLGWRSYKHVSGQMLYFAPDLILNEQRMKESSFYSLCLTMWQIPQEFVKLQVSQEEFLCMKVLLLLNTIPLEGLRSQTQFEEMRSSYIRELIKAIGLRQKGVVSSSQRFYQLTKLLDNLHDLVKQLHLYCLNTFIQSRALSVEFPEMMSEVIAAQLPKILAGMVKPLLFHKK

Mu-type opioid receptor = Mu-type opioid receptor (Homo sapiens, UniProt P35372); experiment: biochemical; assay type: functional
Mu-type opioid receptor, sequence (P35372 whole entry): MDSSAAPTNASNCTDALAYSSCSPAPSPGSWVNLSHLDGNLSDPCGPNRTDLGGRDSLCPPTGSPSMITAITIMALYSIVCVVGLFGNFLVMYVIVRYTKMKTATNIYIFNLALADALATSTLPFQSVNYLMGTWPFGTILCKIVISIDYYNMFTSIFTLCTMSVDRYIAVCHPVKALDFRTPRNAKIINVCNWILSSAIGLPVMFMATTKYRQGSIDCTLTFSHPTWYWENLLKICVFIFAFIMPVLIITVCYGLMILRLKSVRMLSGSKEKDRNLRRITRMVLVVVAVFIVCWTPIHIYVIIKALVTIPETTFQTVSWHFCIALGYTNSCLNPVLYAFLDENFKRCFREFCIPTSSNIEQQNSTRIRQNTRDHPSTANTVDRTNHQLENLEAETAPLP

[1] = target: T2, Muscarinic acetylcholine receptor M1 (Homo sapiens, UniProt P11229); assay type: functional
T2 sequence (P11229 whole entry): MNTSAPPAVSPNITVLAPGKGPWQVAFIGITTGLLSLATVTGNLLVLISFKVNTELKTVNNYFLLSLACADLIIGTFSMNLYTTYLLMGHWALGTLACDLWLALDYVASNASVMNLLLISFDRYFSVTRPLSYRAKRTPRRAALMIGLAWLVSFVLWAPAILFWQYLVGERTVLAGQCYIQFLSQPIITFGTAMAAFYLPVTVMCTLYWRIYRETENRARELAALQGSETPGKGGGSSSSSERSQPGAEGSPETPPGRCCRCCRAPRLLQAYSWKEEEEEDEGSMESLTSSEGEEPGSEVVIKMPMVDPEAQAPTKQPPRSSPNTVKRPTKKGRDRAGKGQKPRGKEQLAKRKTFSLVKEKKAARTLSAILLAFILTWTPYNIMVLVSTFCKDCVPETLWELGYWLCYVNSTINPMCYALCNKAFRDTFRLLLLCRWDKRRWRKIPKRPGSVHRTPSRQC

[2] = target: T3, Alpha-1A adrenergic receptor (Homo sapiens, UniProt P35348); assay type: functional, cell-based
T3 sequence (P35348 whole entry): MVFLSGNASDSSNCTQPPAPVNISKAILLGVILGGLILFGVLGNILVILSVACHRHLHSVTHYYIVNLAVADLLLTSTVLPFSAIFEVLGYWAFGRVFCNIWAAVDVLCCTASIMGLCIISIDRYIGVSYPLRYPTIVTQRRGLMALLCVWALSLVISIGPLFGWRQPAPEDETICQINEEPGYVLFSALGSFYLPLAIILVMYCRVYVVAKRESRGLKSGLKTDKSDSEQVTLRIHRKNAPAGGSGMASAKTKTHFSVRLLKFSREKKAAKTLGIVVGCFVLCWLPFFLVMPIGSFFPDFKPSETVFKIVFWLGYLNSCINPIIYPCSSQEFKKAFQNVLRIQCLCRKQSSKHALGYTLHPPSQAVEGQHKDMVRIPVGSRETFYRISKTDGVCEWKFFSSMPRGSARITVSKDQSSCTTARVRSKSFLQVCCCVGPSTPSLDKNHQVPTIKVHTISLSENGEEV

[3] = target: T4, Alpha-2A adrenergic receptor (Homo sapiens, UniProt P08913); assay type: functional, cell-based
T4 sequence (P08913 whole entry): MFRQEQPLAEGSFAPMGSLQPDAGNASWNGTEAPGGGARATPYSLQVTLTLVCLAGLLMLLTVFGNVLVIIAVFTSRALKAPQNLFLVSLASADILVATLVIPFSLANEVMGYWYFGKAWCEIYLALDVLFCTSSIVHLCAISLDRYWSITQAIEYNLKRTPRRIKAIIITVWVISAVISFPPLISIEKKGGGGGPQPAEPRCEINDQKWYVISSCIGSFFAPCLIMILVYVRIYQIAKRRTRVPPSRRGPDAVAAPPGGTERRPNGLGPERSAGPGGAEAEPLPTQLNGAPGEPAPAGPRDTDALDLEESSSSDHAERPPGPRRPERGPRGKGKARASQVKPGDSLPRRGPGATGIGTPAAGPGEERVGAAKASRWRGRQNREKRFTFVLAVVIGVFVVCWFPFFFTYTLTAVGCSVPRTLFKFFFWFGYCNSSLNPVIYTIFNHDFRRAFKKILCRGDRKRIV
Note: assay procedure not described here.

## C/N=C(\NC)NCc1ccccc1 [BETHANIDINE]
Progesterone receptor
  AC50: > 30 µM
Mu-type opioid receptor
  AC50: > 30 µM
[1]
  AC50: > 30 µM
[2]
  AC50: > 30 µM
[3]
  AC50: > 30 µM

## CN(C)CCCNc1c2ccccc2nc2cccc([N+](=O)[O-])c12 [NITRACRINE]
Progesterone receptor
  AC50: > 30 µM
Mu-type opioid receptor
  AC50: > 30 µM
[1]
  AC50: 11 µM
[2]
  AC50: > 30 µM
[3]
  AC50: > 30 µM

## CCC(C)C1(CC)C(=O)NC(=O)NC1=O (stereo not given) [BUTABARBITAL]
Progesterone receptor
  AC50: > 30 µM
Mu-type opioid receptor
  AC50: > 30 µM
[1]
  AC50: > 30 µM
[2]
  AC50: > 30 µM
[3]
  AC50: > 30 µM
